Assays:
[1] = tested on: present invention protein (A16); assay: Detection of the ability to convert compound (II) to compound (III), E. coli pKSN452F extract; type: in vitro ADME, Streptomyces ornatus IFO 13069t; settings: 3 ppm of compound (II) labeled with 14C, components A, B, 10 minutes at 30° C.
Description: Reaction solutions of 30 μl were prepared and maintained for 10 minutes at 30° C. The reaction solutions consisted of a 0.1M potassium phosphate buffer (pH7.0) containing 3 ppm of compound (II) labeled with ^14C, 2 mM of β-NADPH (hereinafter, referred to as “component A”) (Oriental Yeast Company), 2 mg/ml of a ferredoxin derived from spinach (hereinafter referred to as “component B”) (Sigma Company), 0.1 U/ml of ferredoxin reductase (hereinafter, referred to as “component C”) (Sigma Company) and 23 μl of the supernatant fraction recovered in Example 32(2). Similarly to Example 4(3), the reaction solutions after the maintenance were extracted with ethyl acetate and the extracted layers were TLC analyzed. […] A spot corresponding to compound (III) was detected from the reaction solution containing E. coli pKSN849AF extract. In contrast, such a spot was not detected from the reaction solution containing E. coli pKSN2 extract.
Similarly to Example 32(3), reaction solutions of 30 μl were prepared and maintained for 10 minutes at 30° C. […] The reaction solutions after the maintenance were extracted with ethyl acetate and the extracted layers were TLC analyzed. […] A spot corresponding to compound (III) was detected from the reaction solution containing E. coli pKSN452F extract. In contrast, such a spot was not detected from the reaction solution containing E. coli pKSN2 extract.

[2] = tested on: Barnyardgrass; assay: Herbicidal activity test, soil surface treatment; type: in vivo, Echinochloa crus-galli; design: key: 0: situations in which the condition of sprouting or vegetation at the time of examination of the plant utilized for the test was compared with and showed totally or substantially no difference with that of the untreated application; 10: situations in which the plant completely withered or the sprouting or vegetation was completely suppressed; settings: 500 g/ha, sprayed onto the surface of the soil after seeding, investigated after 19 days in a greenhouse
Description: Soil was packed into a round plastic pot having a diameter of 10 cm and depth of 10 cm. Barnyardgrass, Blackgrass, Ivyleaf morningglory were seeded. Five (5) parts of the test compound, 6 parts of sorpol3005X (Toho Chemical Company) and 89 parts of xylene were well mixed to produce an emulsion. A certain amount thereof was diluted with water containing 0.1% (v/v) of a sticking agent at a proportion of 1000 L for 1 hectare and was spread uniformly with a spray-gun onto the surface of the soil. After cultivating the plants for 19 days in a greenhouse, the herbicidal activity was investigated.
In the above Tables 3 and 4, the strength of the herbicidal activity is shown stepwise as 0, 1, 2, 3, 4, 5, 6, 7, 8, 9, and 10.

[3] = tested on: leaf pieces derived from the tobacco to which the control DNA (T-DNA region of plasmid pBI121S) was introduced; assay: Herbicidal damage of tobacco leaf pieces on MS agar medium containing compound (II); type: cell-based, Nicotiana tabacum strain SR1; settings: MS agar medium containing 0.1 mg/L of compound (II), in the light at room temperature, 7th day of culturing
Description: Then, according to the method described in Manual for Gene Manipulation of Plant (by Hirofumi UCHIMIYA, Kodan-sha Scientific, 1992), the gene was introduced into tobacco. Agrobacterium strains bearing the above plasmids were each cultured at 28° C. overnight in LB medium containing 300 mg/L streptomycin, 100 mg/L rifampicin and 25 mg/L kanamycin, and then leaf pieces of tobacco (Nicotiana tabacum strain SR1) cultured sterilely were dipped in the liquid culture medium. The leaf pieces were planted and cultured at room temperature for 2 days in the light in MS agar medium (MS inorganic salts, MS vitamins, 3% sucrose and 0.8% agar; described in Murashige T. and Skoog F., Physiol. Plant. (1962) 15, p 473) containing 0.1 mg/L of naphthalene acetic acid and 1.0 mg/L of benzyl aminopurine. Then, the leaf pieces were washed with sterilized water and cultured for 7 days on MS agar medium containing 0.1 mg/L of naphthalene acetic acid, 1.0 mg/L of benzyl aminopurine and 500 mg/L of cefotaxime. Next, the leaf pieces were transplanted and cultured in MS agar medium containing 0.1 mg/L of naphthalene acetic acid, 1.0 mg/L of benzyl aminopurine, 500 mg/L of cefotaxime and 100 mg/L of kanamycin. The culture was conducted continuously for 4 months while transplanting the leaf pieces to fresh medium of the same composition at intervals of 4 weeks. […]

[4] = tested on: present invention protein (A14); assay: Metabolism of compounds by the present invention protein (A14), reaction solution, HPLC; type: in vitro ADME, Streptomyces glomerochromogenes IFO 13673t; settings: 5 ppm of compound, components A, B, C, 20 μl supernatant fraction of Example 38(2), 30° C. for 10 minutes
[5] = tested on: present invention protein (A21); assay: Metabolism of compounds by the present invention protein (A21), reaction solution, HPLC; type: in vitro ADME, Streptomyces misawanensis IFO 13855T; settings: 12.5 ppm of compound, components A, B, C, 20 μl supernatant fraction of Example 59(2), 30° C. for 10 minutes

| Compound | spot corresponding to compound (III) labeled with 14C (TLC) [1] | Herbicidal Activity Barnyardgrass [2] | herbicidal damage of the leaf pieces [3] | concentration of the compound detected from metabolism solution (A14) compared to control solution (A14) [4] | concentration of the compound detected from metabolism solution (A21) compared to control solution (A21) [5] |
| --- | --- | --- | --- | --- | --- |
| C[C@@H](Oc1cc(-n2c(=O)cc(C(F)(F)F)n(C)c2=O)c(F)cc1Cl)C(=O)O [compound (II)] | detected | 10 | turned white and withered |  |  |
| Cn1c(C(F)(F)F)cc(=O)n(-c2cc(Oc3cccnc3OCC(=O)O)c(Cl)cc2F)c1=O [compound (XII)] |  |  |  | lower | lower |
| Cn1c(C(F)(F)F)cc(=O)n(-c2cc(Oc3ccccc3OCC(=O)O)c(Cl)cc2F)c1=O [compound (XIII)] |  |  |  | lower | lower |

Source: patent publication US8293979B2, “Weed controller metabolism proteins, genes, thereof and use of the same” (Sumitomo Chemical Company, Limited, priority 2001, dated 2012)
